The source of these data is PMC7582727, “Functional Impact of BeKm-1, a High-Affinity hERG Blocker, on Cardiomyocytes Derived from Human-Induced Pluripotent Stem Cells” (International Journal of Molecular Sciences, 2020).

SMILES strings stand for the structures. “Also recorded” adds a separate entry of the source. Positions of bridges follow the written chain, without caps; N, C: chain ends. Residues, ends and D or L forms follow the SMILES beside them.

The target of data set [1] is human hERG channel (Homo sapiens, UniProt Q12809). Briefly: in vitro. Particulars: human. As for the experimental part: (§1) Voltage pulses and whole-cell recordings were achieved using the PatchControl384 v1.5.3 software (Nanion Technologies, Munich, Germany) and the Biomek v1.0 interface (Beckman Coulter, Villepinte, France). […] After cell catching, sealing, whole-cell formation, liquid application, recording, and data acquisition were all performed sequentially and automatically. […] A single concentration of peptide was tested on each cell for building the full-inhibition curves.

For data set [2], the target named is human hERG channel (Kv11.1) (Homo sapiens, UniProt Q12809). Briefly: in vitro. As for the experimental part:
as §1

For data set [3], the system named is hiPS-CMs (clone C2a, ventricular-like). As to the kind of experiment: Manual patch-clamp of spontaneous action potentials in hiPS-CMs. Type of data set: cell-based, human. The source says: For this study, we used a non-commercial hiPS cell clone (C2a) that has been fully characterized earlier in the laboratory. The properties of the cardiomyocytes derived from this clone may differ to some extent from those of commercial clones, but this should not affect the nature of the conclusions derived from our investigations. […] The effects on AP characteristics also included the depolarization of the maximum diastolic potential (MDP) from −52.2 ± 1.7 mV to −36.1 ± 2.3 mV (n = 7, Figure 2D) and the decrease of maximal upstroke velocity from 6.9 ± 0.9 mV/s (vehicle, n = 7) to 4.6 ± 0.9 mV/s (BeKm-1, n = 7), representing an average 1.5-fold reduction (Figure 2E). […] The action potential duration (APD) at 30% and 50% of repolarization were spared, which is consistent with the role of hERG in the late phase of repolarization in these cells (Figure 2G). In contrast, BeKm-1 was able to delay the repolarization of these cells, increasing the APD at 90% repolarization (APD90) from 95.0 ± 8.4 ms (vehicle, n = 7) to 117.4 ± 11.3 ms (BeKm-1, n = 7; 23% increase) (Figure 2G). While these values could theoretically be corrected for the BeKm-1-induced variability in cycle length (Figure 2C) using the Fridericia cube root formula, the corrected data would be meaningless because of the additional depolarization in MDP (Figure 2D).
hiPS-CMs: All experiments were performed on the human-induced pluripotent stem cell (hiPSC) clone C2a that has been previously characterized, including cardiac differentiation and electrophysiology data. Cells were expanded on stem cell-qualified matrigel-coated plates (0.05 mg/mL; BD Bioscience, Le Pont de Claix, France) and cultured in StemMACS iPS-BREW XF medium (Miltenyi Biotec, Paris, France). Cells were passaged every […] using Gentle Cell Dissociation Buffer (StemCell Technologies, Grenoble, France). Prior to differentiation, cells were cultured as a monolayer in StemMACS iPS-brew supplemented with 1 × Y-27632 Rho-associated, coiled-coil containing protein kinase (ROCK) inhibitor (StemCell Technologies, Grenoble, France). When hiPSCs reached proper confluence, they were differentiated into cardiomyocytes using previously described « Matrix sandwich » protocol. At day 20 ± 1 of differentiation, beating cardiomyocytes were manually dissected and isolated from non-beating cells. Briefly, cardiomyocytes were washed with phosphate-buffered saline (PBS) and treated with TrypLE Express (10x) (Thermo Fisher Scientific, Illkirch-Graffenstaden, France) for 5 min at 37 °C. The enzyme was inactivated by adding RPMI1640 medium containing 20% (vol/vol) KnockOut Serum Replacement (KSR) (Thermo Fisher Scientific, Illkirch-Graffenstaden, France). The supernatant was removed, and cells were suspended in RPMI1640 medium containing 20% (vol/vol) KSR and ROCK inhibitor. Then, the cells were plated on specific supports suitable for functional assessments.
Manual patch clamp: Single-cell dissociated hiPS-CMs were plated at low density on matrigel-coated 35 mm Petri dishes (Nunc from Thermo Fisher Scientific, Illkirch-Graffenstaden, France). Electrophysiological experiments were performed 12 to 14 days after dissociation. APs were recorded in the current-clamp mode, using the amphotericin-B-perforated patch-clamp technique. All experiments were conducted at 37 °C. APs were recorded either at basal state (spontaneous APs) or using the dynamic patch-clamp method to electronically mimic the expression of the inward rectifier potassium current, IK1 [23, 24]. The resting membrane potential (RMP) was set to −80 ± 5 mV by injecting 2 to 2.8 pA/pF in silico IK1 density. This level of current was set so that about 80% of the ventricular-like hiPS-CMs could reach these physiological RMP values. The remaining cells were discarded from the recording process. […]

Sequence of human hERG channel (Kv11.1) (Q12809 whole entry): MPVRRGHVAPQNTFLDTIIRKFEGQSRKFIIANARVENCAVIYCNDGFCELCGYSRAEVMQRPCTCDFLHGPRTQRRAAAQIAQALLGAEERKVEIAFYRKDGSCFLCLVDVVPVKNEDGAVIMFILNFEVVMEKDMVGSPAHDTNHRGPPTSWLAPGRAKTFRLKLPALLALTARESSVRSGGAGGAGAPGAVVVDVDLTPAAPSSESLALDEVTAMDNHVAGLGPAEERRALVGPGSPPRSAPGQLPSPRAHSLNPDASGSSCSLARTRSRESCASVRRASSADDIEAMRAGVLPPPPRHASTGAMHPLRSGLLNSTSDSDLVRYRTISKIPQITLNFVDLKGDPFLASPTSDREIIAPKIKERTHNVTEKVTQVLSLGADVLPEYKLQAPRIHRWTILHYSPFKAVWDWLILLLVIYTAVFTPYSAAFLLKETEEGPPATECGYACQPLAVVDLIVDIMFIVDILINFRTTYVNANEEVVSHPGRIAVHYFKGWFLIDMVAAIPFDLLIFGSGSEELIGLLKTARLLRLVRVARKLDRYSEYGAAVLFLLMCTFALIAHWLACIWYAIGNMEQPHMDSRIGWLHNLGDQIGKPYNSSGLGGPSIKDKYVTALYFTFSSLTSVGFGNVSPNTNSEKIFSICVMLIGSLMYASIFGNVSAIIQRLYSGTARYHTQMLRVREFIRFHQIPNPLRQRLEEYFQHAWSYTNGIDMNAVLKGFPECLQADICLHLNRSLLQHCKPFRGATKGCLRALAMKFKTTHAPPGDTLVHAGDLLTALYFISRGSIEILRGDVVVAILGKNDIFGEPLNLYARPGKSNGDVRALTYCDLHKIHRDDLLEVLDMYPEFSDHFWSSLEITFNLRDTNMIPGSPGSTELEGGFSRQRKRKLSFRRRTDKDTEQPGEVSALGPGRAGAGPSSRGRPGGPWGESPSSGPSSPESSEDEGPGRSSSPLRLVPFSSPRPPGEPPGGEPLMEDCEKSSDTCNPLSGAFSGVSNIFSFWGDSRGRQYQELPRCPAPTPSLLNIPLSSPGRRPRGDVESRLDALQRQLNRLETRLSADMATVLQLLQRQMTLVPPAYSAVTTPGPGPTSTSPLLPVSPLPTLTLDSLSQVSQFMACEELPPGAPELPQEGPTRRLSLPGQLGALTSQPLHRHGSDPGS
Sequence of human hERG channel (Q12809 whole entry): as above

In data set [1], `CC[C@H](C)[C@H](NC(=O)[C@H](CC(=O)O)NC(=O)[C@@H](NC(=O)[C@@H]1CCCN1C(=O)[C@@H](N)CCCNC(=N)N)[C@@H](C)O)C(=O)N[C@@H](CCCCN)C(=O)N[C@H]1CSSC[C@@H]2NC(=O)[C@H](CCCNC(=N)N)NC(=O)CNC(=O)[C@H](CC(N)=O)NC(=O)[C@H]([C@@H](C)O)NC(=O)[C@H](CCCCN)NC(=O)CNC(=O)[C@H](Cc3ccccc3)NC(=O)[C@H](CCCNC(=N)N)NC(=O)[C@H](CO)NC(=O)[C@H](CCCCN)NC(=O)[C@@H]3CSSC[C@@H](C(=O)N[C@@H](Cc4ccccc4)C(=O)O)NC(=O)[C@H](CC(=O)O)NC(=O)[C@H](CSSC[C@H](NC(=O)[C@H](CCC(N)=O)NC(=O)[C@H](Cc4ccc(O)cc4)NC(=O)[C@H](CO)NC(=O)[C@H](CCC(=O)O)NC(=O)[C@H](CO)NC1=O)C(=O)N[C@@H](Cc1ccccc1)C(=O)N1CCC[C@H]1C(=O)N[C@@H](C(C)C)C(=O)N3)NC(=O)[C@H](Cc1ccccc1)NC(=O)CNC(=O)[C@H](CC(N)=O)NC(=O)[C@H](C(C)C)NC2=O` [BeKm-1] (H-RPTDIKCSESYQCFPVCKSRFGKTNGRCVNGFCDCF-OH; disulfide 7-28, 13-33, 17-35 (inferred); N-terminus and C-terminus assumed) showed an IC50 at 13 min of 1.9 ± 0.3 nM. Moreover, in data set [2] (HEK293-hERG, Hill equation fit of dose-response curve), the “Hill number, hERG current inhibition” value was 1.9. For the same compound, in data set [2] (at maximally effective doses of the peptide (100 nM)), the “maximal block of hERG currents (plateau)” value worked out at 90%. This compound gave an AP frequency in data set [3] (5 nM BeKm-1, 37 °C, vehicle 2.50 ± 0.20 Hz, n = 7, mean ± SEM, significant) of 0.70 ± 0.26 Hz. Moreover, the “kinetics of AP parameter changes” value in data set [3] (5 nM application, Figure S2) was “changed according to similar kinetics”. In data set [3] (5 nM vs vehicle, average), the “maximal upstroke velocity, fold reduction” value is given as 1.5 -fold. Also, the APD90 increase in data set [3] (5 nM vs vehicle, spontaneous APs) worked out at 23%. Moreover, in data set [3] (5 nM, representative time course, Figure S2), the “restitution of AP parameters after toxin washout” value is given as “rather rapid restitution of these parameters after toxin washout”. For the same compound, the “APD at 30% and 50% of repolarization” value in data set [3] (5 nM, spontaneous APs) is “spared”. Further, the “APD at 90% repolarization (APD90)” value in data set [3] (5 nM, spontaneous APs, vehicle 95.0 ± 8.4 ms, n = 7, mean ± SEM, not corrected for cycle length) turned out to be 117.4 ± 11.3 ms. For the same compound, the APD90 variability entry in data set [3] (5 nM, Poincaré plot) was “increased”. Moreover, the AP rhythm variability result in data set [3] (5 nM, Poincaré plot of consecutive APs) was “increase of rhythm variability”. Moreover, in data set [3] (5 nM, vehicle 6.9 ± 0.9 mV/s, n = 7, mean ± SEM), the “maximal upstroke velocity (dV/dtmax)” value is on record as 4.6 ± 0.9 mV/s. For the same compound, in data set [3] (5 nM, vehicle 29.9 ± 3.1 mV, n = 7, mean ± SEM, not significant), the AP overshoot was determined as 22.2 ± 6.4 mV. Besides, the “maximum diastolic potential (MDP)” value in data set [3] (5 nM, vehicle −52.2 ± 1.7 mV, n = 7, mean ± SEM) is listed as −36.1 ± 2.3 mV. Also, in data set [3] (100 nM, representative trace of single hiPS-CM), the “beating / AP arrest” value was “AP arrest; also recorded: complete beating arrest by a major membrane depolarization”. The “early afterdepolarizations (EADs)” value in data set [3] (spontaneously beating ventricular-like cells) is on record as “never observed”. The reversibility on wash result in data set [3] (wash after 5 nM, n = 5) was “fully restored all parameters”.
